Measured values from PubChem BioAssay (NCI).
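GI50 marks 50% less growth. TGI is the concentration that stops growth completely.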

How the values were obtained:
Test in all cases: inhibition of tumour cell growth, NCI panel, 384-well format
A498 renal = tested on: A498 renal
A549 NSCLC = tested on: A549 NSCLC
CAKI-1 renal = tested on: CAKI-1 renal
CCRF-CEM leukemia = tested on: CCRF-CEM leukemia
COLO 205 colon = tested on: COLO 205 colon
HCC-2998 colon = tested on: HCC-2998 colon
HL-60(TB) leukemia = tested on: HL-60(TB) leukemia
HOP-62 NSCLC = tested on: HOP-62 NSCLC
HS 578T breast = tested on: HS 578T breast
IGROV1 ovarian = tested on: IGROV1 ovarian
LOX IMVI melanoma = tested on: LOX IMVI melanoma
MALME-3M melanoma = tested on: MALME-3M melanoma
MDA-MB-231 breast = tested on: MDA-MB-231 breast
MOLT-4 leukemia = tested on: MOLT-4 leukemia
NCI-H226 lung = tested on: NCI-H226 lung
NCI-H23 lung = tested on: NCI-H23 lung
NCI-H322M lung = tested on: NCI-H322M lung
NCI-H522 lung = tested on: NCI-H522 lung
OVCAR-3 ovarian = tested on: OVCAR-3 ovarian
OVCAR-4 ovarian = tested on: OVCAR-4 ovarian
OVCAR-5 ovarian = tested on: OVCAR-5 ovarian
RPMI-8226 leukemia = tested on: RPMI-8226 leukemia
SF-295 CNS = tested on: SF-295 CNS
SF-539 CNS = tested on: SF-539 CNS
SK-MEL-28 melanoma = tested on: SK-MEL-28 melanoma
SK-MEL-5 melanoma = tested on: SK-MEL-5 melanoma
SK-OV-3 ovarian = tested on: SK-OV-3 ovarian
SNB-19 CNS = tested on: SNB-19 CNS
SNB-75 CNS = tested on: SNB-75 CNS
TK-10 renal = tested on: TK-10 renal
U251 glioblastoma = tested on: U251 glioblastoma
UACC-62 melanoma = tested on: UACC-62 melanoma
UO-31 renal = tested on: UO-31 renal

CN(Cc1cnc2nc(N)nc(N)c2n1)c1ccc(C(=O)N[C@@H](CCC(=O)O)C(=O)O)cc1
GI50 (A498 renal): < 18.8 nM | TGI (A498 renal): 232 nM | TGI (A549 NSCLC): 17.8 nM | GI50 (CAKI-1 renal): 26.3 nM | TGI (CAKI-1 renal): 73.8 nM | TGI (CCRF-CEM leukemia): < 11.3 nM | GI50 (COLO 205 colon): 51.3 nM | TGI (COLO 205 colon): 95.9 µM | GI50 (HCC-2998 colon): 39.1 nM | TGI (HL-60(TB) leukemia): < 14.2 nM | GI50 (HOP-62 NSCLC): 37.5 nM | TGI (HOP-62 NSCLC): 123 nM | GI50 (HS 578T breast): < 15.1 nM | TGI (HS 578T breast): 31.6 nM | GI50 (IGROV1 ovarian): 28.6 nM | TGI (LOX IMVI melanoma): 14 nM | GI50 (MALME-3M melanoma): < 15.3 nM | GI50 (MDA-MB-231 breast): 263 nM | TGI (MDA-MB-231 breast): 680 nM | TGI (MOLT-4 leukemia): 18.1 nM | GI50 (NCI-H226 lung): 28.9 nM | GI50 (NCI-H23 lung): 30.4 nM | TGI (NCI-H23 lung): 308 nM | GI50 (NCI-H322M lung): < 12.6 nM | TGI (NCI-H322M lung): 22.6 nM | GI50 (NCI-H522 lung): 32 nM | TGI (NCI-H522 lung): 543 nM | GI50 (OVCAR-3 ovarian): < 14.8 nM | TGI (OVCAR-3 ovarian): 27.6 nM | TGI (OVCAR-4 ovarian): 66.5 nM | TGI (OVCAR-5 ovarian): < 15.4 nM | GI50 (RPMI-8226 leukemia): 17.3 nM | TGI (RPMI-8226 leukemia): 42.1 nM | GI50 (SF-295 CNS): < 13.5 nM | TGI (SF-295 CNS): < 20.9 nM | TGI (SF-539 CNS): 13.6 µM | GI50 (SK-MEL-28 melanoma): 27.7 nM | TGI (SK-MEL-28 melanoma): 60.7 nM | GI50 (SK-MEL-5 melanoma): 130 nM | TGI (SK-MEL-5 melanoma): 87.3 µM | GI50 (SK-OV-3 ovarian): 1450 nM | GI50 (SNB-19 CNS): < 19.7 nM | GI50 (SNB-75 CNS): < 12.9 nM | TGI (SNB-75 CNS): < 28.3 nM | GI50 (TK-10 renal): 23.6 nM | TGI (TK-10 renal): 52.3 nM | GI50 (U251 glioblastoma): 31.7 nM | GI50 (UACC-62 melanoma): 18.9 nM | GI50 (UO-31 renal): 29.5 nM | TGI (UO-31 renal): 9.76 µM
